Several values for one entry are separate records, joined by “and”; a condition that tells them apart may be missing. Identical values can stand only once.
Columns and labels:
[1] = system: BN receptors on membrane preparations from U-87MG tumours; test: 125I-[Tyr4]BN binding characteristics (Kd, Bmax) of BN receptors on U-87MG tumour membranes; design: species or system human; details: AN-215-treated vs control
Description: Binding characteristics of BN receptors on membrane preparations from U-87MG tumours were determined by ligand competition assays using ^125I-labelled [Tyr^4]BN, as reported earlier ([Halmos and Schally, 1997]). […] IC50 value was calculated with a computerized curve fitting programme and is defined as the concentration of AN-215 causing a 50% inhibition of ^125I-[Tyr^4]BN binding.

[2] = system: U-87MG human glioblastoma xenografted into nude mice; test: Experiment 1: growth of s.c. U-87MG xenografts in nude mice; format: in vivo, human tumour in male athymic nude mice; details: for Final tumour volume / Final tumour volume, % inhibition / Tumour weight, % inhibition / Tumour doubling time: 150 nmol kg^-1 i.v. days 1, 8, 15, 22; for Final tumour volume / Final tumour volume, % inhibition / Tumour weight, % inhibition: day 29; for Final tumour volume / Tumour doubling time: mean±s.e.; for Final tumour volume: control 3201.5±375.7; for Final tumour volume, % inhibition / Tumour weight, % inhibition: vs control; for Antitumour effect / Tumour doubling time: experiment 1; for Antitumour effect: 150 nmol kg^-1 i.v.; for Tumour doubling time: day 1 to 29, control 4.5±0.2
Description: Human glioblastoma cell line U-87MG was obtained from American Type Culture Collection (Manassas, VA, USA) and cultured as described ([Pinski et al, 1994]). Male athymic (Ncr nu/nu) nude mice, approximately 6-weeks-old on arrival, were obtained from the National Cancer Institute (Frederick Cancer Research and Development Center, Frederick, MD, USA), and housed in laminar air-flow cabinets under pathogen-free conditions with a 12 h light/12 h dark schedule, and fed autoclaved standard chow and water ad libitum. Xenografts were initiated by s.c. injection of 12×10^6 U-87MG cells into the right flanks of five male nude mice. Tumours resulting after 2 weeks were aseptically dissected, mechanically minced, and 3-mm^3 pieces of tumour tissue were transplanted s.c. with a trocar needle. The take rate was 100%. All experiments were performed in accordance with institutional ethical guidelines of animal care and were essentially in agreement with [UKCCCR guidelines (1998)] for the welfare of animals in experimental neoplasia.
Experiment 1 was started when tumours had grown to approximately 40 mm^3 in volume. Animals were randomly divided into three treatment groups: group 1(10 mice), control, which received vehicle solution; group 2 (10 mice), injected with cytotoxic radical AN-201; group 3 (11 mice), given cytotoxic BN analogue AN-215. Cytotoxic compounds were injected through the jugular vein at a dose of 150 nmol kg^−1 of body weight (BW) on days 1, 8, 15 and 22. Tumour volume (length×width×height×0.5236) and BW were measured twice a week. The experiment was terminated on day 29. […] Tumours were excised and weighed. Tumour specimens were snap-frozen and stored at −70°C until extraction of RNA for reverse transcription-polymerase chain reaction (RT–PCR). Tumour volume doubling time was calculated between day 1 and 29 using the formula: […]
as described by [Smolev et al (1977)].
Data are expressed as mean±s.e. Differences between mean values were evaluated by two-tailed Student's t-test, P<0.05 being considered significant.

[3] = system: U-87MG human glioblastomas in nude mice; test: Histology of U-87MG tumours (experiment 1); format: in vivo, human tumour in nude mice; details: for Extent of necrosis vs control / % area of necrosis / Ratio of apoptotic to mitotic indices / Apoptotic index / Mitotic index: experiment 1 tumours; for % area of necrosis: 150 nmol kg^-1 i.v. x4, control 60.0±5.8; for % area of necrosis / Ratio of apoptotic to mitotic indices / Apoptotic index / Mitotic index / Number of AgNORs per cell: mean±s.e.; for Ratio of apoptotic to mitotic indices: control 0.38±0.06; for Apoptotic index / Mitotic index: per 1000 cells; for Apoptotic index: control 5.9±0.7; for Mitotic index: control 16.6±1.4; for Number of AgNORs per cell: silver staining, 50 cells per tumour, control 4.93±0.18
Text: Samples of tumour tissues were fixed in 10% buffered formalin. The specimens were embedded in Paraplast (Oxford Labware, St. Louis, MO, USA). Six μm thick sections were cut and stained with haematoxylin-eosin. Mitotic and apoptotic cells were counted in nine standard high power microscopic fields containing an average of 330 cells, and their numbers per 1000 cells were accepted as the mitotic and apoptotic indices, respectively. To eliminate errors caused by variances in thickness of slides and cellularity of areas investigated, the ratio of apoptotic to mitotic indices was calculated in each tumour. For the determination of the extent of necrosis in tumours, the crossing points of a microscope ocular net that coincided with necrosis in the slide made at the largest cross-section of each tumour were counted. The ratio of these points to the number of all points above the tumour represented the percentage area of necrosis. […] NORs are parts of DNA closely associated with nucleoli and encode for ribosomal RNA. They are also associated with argyrophylic proteins and thus can be visualised by silver staining. The amount of AgNORs is a good indicator of cell proliferation ([van Diest et al, 1998]). The silver-stained black dots in 50 cells of each tumour were counted and the AgNOR number per cell was calculated. The data were evaluated by one way analysis of variance (ANOVA) and the treated groups compared to the control by Dunnett's test.

[4] = cited from earlier work; for BW change: accompanying WBC decrease, nude mice bearing PC-3; for Reduction in WBC count: after the final injection, nude mice bearing PC-3 human prostate cancers
Description: In our previous study ([Plonowski et al, 2000]) we reported that after the final injection of AN-215, AN-201 or the mixture of AN-201 and […] there was an approximate 50% reduction in WBC count in nude mice bearing PC-3 human prostate cancers. […] In the present study no measurements of WBC were carried out. Instead, the assessment of toxicity was based on changes in BW and mortality which indicated, in both experiments, that targeted cytotoxic BN analogue AN-215 is not toxic (Table 2). In experiment 1, two of 10 animals (20%) ...

[5] = system: H-69 human small-cell lung carcinoma; details: ref Kiaris et al, 1999a; cited from earlier work
Text: (§1) Current treatment options for malignant gliomas, including surgery, radiation, and chemotherapy, are of limited effectiveness, and novel therapeutic modalities must be explored. Targeting of antineoplastic agents to cancer cells by linking them to a ligand with high affinity for tumour cells should improve tumour growth inhibition and decrease peripheral toxicity ([Schally and Nagy, 1999]). The presence of high affinity receptors for bombesin (BN)-like peptides on a wide variety of tumours prompted us to employ some of our powerful BN/gastrin releasing peptide (GRP) antagonists as carrier mole ...

[6] = system: PC-3 human androgen-independent prostate cancer; details: ref Plonowski et al, 2000; cited from earlier work
Text: as §1

[7] = system: BN receptors on Swiss 3T3 fibroblasts; details: ref Nagy et al, 1997; cited from earlier work
Text: as §1

With “Gln-Trp-Ala-Val-Gly-His-Leu-ψ(CH2-NH)-Leu-NH2 [AN-215]” as the molecule, how does the “Effect of treatment on binding characteristics of receptors for BN/GRP” value [1] read?
The value was “did not affect the binding characteristics”.

And the Final tumour volume [2]?
Its Final tumour volume is 971.5±227.9 mm^3.

And the “Final tumour volume, % inhibition” value [2]?
Its value is 69.6%.

What about the “Tumour weight, % inhibition” value [2] of the same molecule?
The value was 64.6%.

What about the “Antitumour effect” value [2] of the same molecule?
Its value is “strong tumour growth inhibition”.

And the Tumour doubling time [2]?
Its Tumour doubling time is 8.18±1.8 days and 8.2±1.8 days and 8.2±1.8^c days.

And the “Extent of necrosis vs control” value [3]?
Its value is “significantly larger than in the controls”.

And the “% area of necrosis” value [3]?
Its value is 81.7±6.7 %.

What about the “Ratio of apoptotic to mitotic indices” value [3] of the same molecule?
Its value is 0.85±0.25.

And the Apoptotic index [3]?
The Apoptotic index was 6.2±0.8.

And the Mitotic index [3]?
Its Mitotic index is 10.9±2.2.

What about the “Number of AgNORs per cell” value [3] of the same molecule?
The value was 4.16±0.12.

What about the “BW change” value ([4]; ref Plonowski et al, 2000) of the same molecule?
Its value is “transient decrease in BW”.

What about the “Reduction in WBC count” value ([4]; ref Plonowski et al, 2000) of the same molecule?
The value was about 50%.

And the “Tolerance with carboxylesterase inhibited” value ([4]; nude mice, ref Nagy et al, 2000, Plonowski et al)?
Its value is “significantly higher tolerance”.

And the “Efficacy with suppressed esterase activity” value ([4]; nude mice, ref Plonowski et al, 2000)?
Its value is “highly efficacious”.

And the “Inhibition of H-69 human small-cell lung carcinoma” value [5]?
Its value is “effectively inhibit”.

What about the “Inhibition of PC-3 human androgen-independent prostate cancer” value [6] of the same molecule?
Its value is “effectively inhibit”.

And the “Affinity to BN receptors” value [7]?
The value was “high affinity”.

Which Final tumour volume [2] does the source give for `COc1cccc2c1C(=O)c1c(O)c3c(c(O)c1C2=O)C[C@@](O)(C(=O)CO)C[C@@H]3O[C@H]1C[C@H](N2C=CCC2)[C@H](O)[C@H](C)O1` [AN-201, 2-pyrrolino-doxorubicin] here?
Its Final tumour volume is 2353.7±506.7 mm^3.

And the “Final tumour volume, % inhibition” value [2]?
The value was 26%.

What about the “Tumour weight, % inhibition” value [2] of the same molecule?
The value was 13.2%.

And the “Antitumour effect” value [2]?
The value was “ineffective”.

What about the Tumour doubling time [2] of the same molecule?
The Tumour doubling time was 5.9 ± 1.4 days.

And the “Extent of necrosis vs control” value [3]?
The value was “only a slight and not significant change in necrosis”.

And the “% area of necrosis” value [3]?
Its value is 69.6±7.0%.

And the “Ratio of apoptotic to mitotic indices” value [3]?
The value was 0.36±0.04.

What about the Apoptotic index [3] of the same molecule?
The Apoptotic index was 5.3±0.6.

What about the Mitotic index [3] of the same molecule?
The Mitotic index was 15.2±1.5.

And the “Number of AgNORs per cell” value [3]?
The value was 4.31±0.09.

And the “BW change” value ([4]; ref Plonowski et al, 2000)?
The value was “transient decrease in BW”.

What about the “Reduction in WBC count” value ([4]; ref Plonowski et al, 2000) of the same molecule?
The value was about 50%.

Reference: paper PMC2375353, “Effective treatment of experimental U-87MG human glioblastoma in nude mice with a targeted cytotoxic bombesin analogue, AN-215” (British Journal of Cancer, 2002)
